Patent US20170273985A1, “TRICYCLIC DERIVATIVE” (Sunovion Pharmaceuticals Inc., priority 2014, published 2017)

Molecular target: PDE1B (Homo sapiens, UniProt Q01064)
Assay: In vitro HTRF PDE1 inhibition assay (PDE1B)
Format: biochemical
Details: Table 25
Text: An exemplary procedure for the in vitro Homogenous Time Resolved Fluorescence assay, which can be used to determine the inhibitory action of compounds of the invention toward PDE1 or its isoforms, follows. The HTRF PDE1 assay utilized the HTRF (Homogenous Time Resolved Fluorescence) technology, which is based on the competition between unlabeled cyclic nucleotide and cyclic nucleotide labeled with XL665 for the binding to cyclic nucleotide-specific antibody labeled with cryptate. The HTRF signal is thus inversely proportional to the concentration of cyclic nucleotide being measured. Since phosphodiesterases break down cyclic nucleotides the HTRF signal was used to determine PDE activity. The Cisbio cGMP HTRF assay kit (Cat no: 62GM2PEC) was utilized. Cyclic GMP was diluted to 200 nM in HTRF assay buffer (1 mM CaCl2, 10 mM MgCl2, 10 mM Tris-HCl, 0.1% BSA, pH 7.4). 10 μl of compound or DMSO was diluted in 200 nM cyclic GMP solution and added to wells of a 96 well white plate to give 100 nM cyclic GMP in 1% DMSO final concentration. PDE (1A3, 1B or IC) was diluted to 2× working concentration in HTRF assay buffer with 2 μg/ml calmodulin, and 10 μl was added to initiate the reaction. The plate was then incubated for 45 minutes at 37° C. d2-Labelled cyclic GMP and anti-cGMP cryptate were diluted in 50 mM phosphate buffer, 0.8 M KF, 1% Triton X100, 0.2% BSA, pH 7.0. Following incubation 10 μl d2-cGMP, then 10 μl anti cGMP cryptate were added to each well and the plate was incubated for 45 minutes at room temperature. The plate was then read on Perkin Elmer Victor at 2 different FRET readings ex/emm 340 nm/665 nm and 340 nm/615 nm. Compounds having an IC50 of <1 μM, are denoted as +++. Compounds having an IC50 of 1−10 μM, are denoted as ++. Compounds having an IC50 of 10-100 μM, are denoted as +.

| Compound | IC50 |
| --- | --- |
| CC(C)CN1CC(F)(F)Cn2c1nn1c(C3CCOCC3)ncc1c2=O [Example 202] | < 1000 nM |
| CC(C)CCN1CC(F)(F)Cn2c1nn1c(C3CCOCC3)ncc1c2=O [Example 203] | < 1000 nM |
| CC(C)n1ncc2c(=O)n3c(nc21)N(Cc1ccc(C2CCOCC2)cc1)CC3 [Example 204] | < 1000 nM |
| CC(C)n1ncc2c(=O)n3c(nc21)N(Cc1ccc(-c2ccc(F)cn2)cc1)CC3 [Example 205] | < 1000 nM |
| CC(C)n1ncc2c(=O)n3c(nc21)N(CC1CCC(F)(F)CC1)CC3 [Example 206] | < 1000 nM |
| O=c1c2cnn(C3CCOCC3)c2nc2n1CCN2Cc1ccc(-c2ccccn2)cc1 [Example 207] | < 1000 nM |
| O=c1c2cnn(C3CCOCC3)c2nc2n1CCN2Cc1ccc(-c2ccc(F)cn2)cc1 [Example 208] | < 1000 nM |
| O=c1c2cnn(C3CCOCC3)c2nc2n1CCN2Cc1ccc(C(F)(F)F)cc1 [Example 209] | < 1000 nM |
| O=c1c2cnn(C3CCOCC3)c2nc2n1CCN2CC1CCC(F)(F)CC1 [Example 210] | < 1000 nM |
| CC(C)(C)CCN1CCn2c1nc1c(cnn1C1CCOCC1)c2=O [Example 211] | < 1000 nM |
| O=c1c2cnn(C3CCOCC3)c2nc2n1CCN2CCCC(F)(F)F [Example 212] | < 1000 nM |
| CC(C)CCN1CCn2c1nc1c(cnn1C1CCOCC1)c2=O [Example 213] | < 1000 nM |
| CC(C)n1ncc2c(=O)n3c(nc21)N(Cc1ccc(Cl)cn1)CCC3 [Example 214] | < 1000 nM |
| CC(C)n1ncc2c(=O)n3c(nc21)N(Cc1ccc(-c2ccccn2)cc1)CCC3 [Example 215] | < 1000 nM |
| CC(C)n1ncc2c(=O)n3c(nc21)N(Cc1ccc(C2CCOCC2)cc1)CCC3 [Example 216] | < 1000 nM |
| O=c1c2cnn(C3CCOCC3)c2nc2n1CCCN2Cc1ccc(Cl)cn1 [Example 217] | < 1000 nM |
| O=c1c2cnn(C3CCOCC3)c2nc2n1CCCN2Cc1ccc(C(F)(F)F)cc1 [Example 218] | < 1000 nM |

| Compound | IC50 |
| --- | --- |
| O=c1c2cnn(C3CCOCC3)c2nc2n1CCCN2Cc1ccc(F)cc1 [Example 219] | < 1000 nM |
| O=c1c2cnn(C3CCOCC3)c2nc2n1CCCN2Cc1ccc(-c2ccccn2)cc1 [Example 220] | < 1000 nM |
| O=c1c2cnn(C3CCOCC3)c2nc2n1CCCN2Cc1ccc(-c2ccc(F)cn2)cc1 [Example 221] | < 1000 nM |
| O=c1c2cnn(C3CCOCC3)c2nc2n1CCCN2CCCC(F)(F)F [Example 222] | < 1000 nM |
| O=c1c2cnn(C3CCOCC3)c2nc2n1CCCN2CC1CCC(F)(F)CC1 [Example 223] | < 1000 nM |
| CC(C)CCN1CCCn2c1nc1c(cnn1C1CCOCC1)c2=O [Example 224] | < 1000 nM |
| O=c1c2cnn(C3CCOCC3)c2nc2n1CCCN2CCCCC(F)(F)F [Example 225] | < 1000 nM |
| CC(C)CN1CCCn2c1nc1c(cnn1C1CCOCC1)c2=O [Example 226] | < 1000 nM |
| O=c1c2cnn(C3CCOCC3)c2nc2n1CCCN2CC1CC1(F)F (stereo not drawn) [Example 227] | < 1000 nM |
| CC(C)(C)CN1CCCn2c1nc1c(cnn1C1CCOCC1)c2=O [Example 228] | < 1000 nM |
| CC(C)(C)CCN1CCCn2c1nc1c(cnn1C1CCOCC1)c2=O [Example 229] | < 1000 nM |
| CO[C@@H](C)c1ncc2c(=O)n3c(nn12)N(CCCC(F)(F)F)CC3 [Example 230] | < 1000 nM |
| CO[C@H](C)c1ncc2c(=O)n3c(nn12)N(CCCC(F)(F)F)CC3 [Example 231] | 1000 to 10000 nM |
| Cc1nc(C2CCOCC2)n2nc3n(c(=O)c12)CCN3CCC(C)C [Example 234, 6-Methyl-1-(3-methylbutyl)-8-(tetrahydro-2H-pyran-4-yl)-2,3-dihydro-1H,5H-diimidazo[2,1-c:5′,1′-f][1,2,4]triazin-5-one] | 1000 to 10000 nM |
| CC(C)CCN1CCn2c1nn1c(C3CCOCC3)nc(C#N)c1c2=O [Example 235, 1-(3-Methylbutyl)-5-oxo-8-(tetrahydro-2H-pyran-4-yl)-2,3-dihydro-1H,5H-diimidazo[2,1-c 5′,1′-f][1,2,4]triazine-6-carbonitrile] | 1000 to 10000 nM |
| CC(C)CCN1CCn2c1nn1c(C3CCOCC3)nc(Cl)c1c2=O [Example 236, 6-Chloro-1-(3-methylbutyl)-8-(tetrahydro-2H-pyran-4-yl)-2,3-dihydro-1H,5H-diimidazo[2,1-c:5′,1′-f][1,2,4]triazin-5-one] | < 1000 nM |
